We go through 23 compounds from US20230081426A1, “COMPOUNDS AND METHODS FOR KRAS MODULATION AND INDICATIONS THEREFOR” (Plexxikon Inc., priority 2020, published 2023).

What is called IC50 is the midpoint of a concentration-inhibition curve.

Assay [1] concerns the target T1, G12D-mutant human KRAS (amino acid residues 1-188) (Homo sapiens, UniProt P01116, G12D).
T1 construct: G12D or G12C-mutant human KRAS (amino acid residues 1-188) with FLAG tag; made in house; host or cells: E. coli
Briefly: KRAS Binding Disruption Assay (AlphaScreen; biotinylated KRpep-2d analogue or RAF1-RBD), G12D. Conditions: KRAS G12D; geometric mean; read-out: KRAS GMean IC50 (uM) MUTATION: G12D. In outline:
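Mutant KRAS (5-20 nM) incubated 1 h at 25° C with test compound and 5-20 nM biotinylated KRpep-2d analogue or RAF1-RBD in 20 mM HEPES pH 7.5, 100 mM NaCl, 5 mM MgCl2, 0.01% Tween-20, 0.01% BSA.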
Background: In Alpha technology, singlet oxygen from a donor bead excites a nearby acceptor bead.

The target in assay [2] is T2, G12V-mutant human KRAS (amino acid residues 1-188) (Homo sapiens, UniProt P01116, G12V).
T2 construct: G12V-mutant human KRAS (amino acid residues 1-188) with FLAG tag was purified from E. coli; made in house; host or cells: E. coli
Kind of assay: KRAS Binding Competition Assay (AlphaScreen; biotinylated KRpep-2d analogue), G12V. The settings on record: geometric mean, read-out: KRAS GMean IC50 (uM) MUTATION: G12V.

As to `CN1CCC[C@H]1COc1nc(N2[C@@H]3CC[C@H]2CN(C(=O)CS(N)(=O)=O)C3)c2ccc(-c3cc(O)cc4ccccc34)cc2n1` [P-0315, 2-((1R,5S)-8-(7-(3-hydroxynaphthalen-1-yl)-2-(((S)-1-methylpyrrolidin-2-yl)methoxy)quinazolin-4-yl)-3,8-diazabicyclo[3.2.1]octan-3-yl)-2-oxoethane-1-sulfonamide], the IC50 in assay [1] and in assay [2] was 10 to 100 µM throughout.

`CN1CCC[C@H]1COc1nc(N2[C@@H]3CC[C@H]2CN(C(=O)CNS(N)(=O)=O)C3)c2ccc(-c3cc(O)cc4ccccc34)cc2n1` [P-0316, N-(2-((1R,5S)-8-(7-(3-hydroxynaphthalen-1-yl)-2-(((S)-1-methylpyrrolidin-2-yl)methoxy)quinazolin-4-yl)-3,8-diazabicyclo[3.2.1]octan-3-yl)-2-oxoethyl)aminosulfonamide]: the IC50 in assay [1] and in assay [2] was 10 to 100 µM throughout.

`CN1CCC[C@H]1COc1nc(N2[C@@H]3CC[C@H]2CN(C(=O)CNC(N)=O)C3)c2ccc(-c3cc(O)cc4ccccc34)cc2n1` [P-0317, 1-(2-((1R,5S)-8-(7-(3-hydroxynaphthalen-1-yl)-2-(((S)-1-methylpyrrolidin-2-yl)methoxy)quinazolin-4-yl)-3,8-diazabicyclo[3.2.1]octan-3-yl)-2-oxoethyl)urea]: the IC50 in assay [1] and in assay [2] was 10 to 100 µM throughout.

Consider `CN1CCC[C@H]1COc1nc(N2C[C@H]3CC[C@@H](C2)N3)c2cc(Cl)c(-c3c[nH]c4ccccc34)c(F)c2n1` [P-0318, 4-((1R,5S)-3,8-diazabicyclo[3.2.1]octan-3-yl)-6-chloro-8-fluoro-7-(1H-indol-3-yl)-2-(((S)-1-methylpyrrolidin-2-yl)methoxy)quinazoline], for which the IC50 lay in the range of 0.0001 to 10 µM in assay [1] and 10 to 100 µM in assay [2].

Take `COc1ccc2[nH]cc(-c3c(Cl)cc4c(N5C[C@H]6CC[C@@H](C5)N6)nc(OC[C@@H]5CCCN5C)nc4c3F)c2c1` [P-0319, 4-((1R,5S)-3,8-diazabicyclo[3.2.1]octan-3-yl)-6-chloro-8-fluoro-7-(5-methoxy-1H-indol-3-yl)-2-(((S)-1-methylpyrrolidin-2-yl)methoxy)quinazoline]: the IC50 lay in the range of 0.0001 to 10 µM in assay [1] and 10 to 100 µM in assay [2].

Turning to `CN(C)c1cccc(COc2nc(N3[C@@H]4CC[C@H]3CNC4)c3ccc(-c4cc(O)cc5ccccc45)cc3n2)c1` [P-0320, 4-(4-((1R,5S)-3,8-diazabicyclo[3.2.1]octan-8-yl)-2-((3-(dimethylamino)benzyl)oxy)quinaz-olin-7-yl)naphthalen-2-ol], the IC50 in assay [1] and in assay [2] was 0.0001 to 10 µM throughout.

`Oc1cc(-c2ccc3c(N4[C@@H]5CC[C@H]4CNC5)nc(Oc4cccnc4)nc3c2)c2ccccc2c1` [P-0321, 4-(4-((1R,5S)-3,8-diazabicyclo[3.2.1]octan-8-yl)-2-(pyridin-3-yloxy)quinazolin-7-yl)naphthalen-2-ol]: the IC50 in assay [1] and in assay [2] was 10 to 100 µM each time.

Consider `Oc1cc(-c2ccc3c(N4[C@@H]5CC[C@H]4CNC5)nc(Nc4cccnc4)nc3c2)c2ccccc2c1` [P-0322, 4-(4-((1R,5S)-3,8-diazabicyclo[3.2.1]octan-8-yl)-2-(pyridin-3-ylamino)quinazolin-7-yl)naphthalen-2-ol], for which the half-maximal inhibitory concentration (IC50) in assay [1] and in assay [2] was 10 to 100 µM throughout.

For the compound `CN1CCC[C@H]1COc1nc(N2C[C@H]3CC[C@@H](C2)N3)c2cc(Cl)c(-c3c[nH]c4ccc(Cl)cc34)c(F)c2n1` [P-0323, 4-((1R,5S)-3,8-diazabicyclo[3.2.1]octan-3-yl)-6-chloro-7-(5-chloro-1H-indol-3-yl)-8-fluoro-2-(((S)-1-methylpyrrolidin-2-yl)methoxy)quinazoline], the values for the IC50 in assay [1] and in assay [2] were 0.0001 to 10 µM and 10 to 100 µM, respectively.

For `CN1CCC[C@H]1COc1nc(N2[C@@H]3CC[C@H]2CN(C(=O)CC(=O)O)C3)c2ccc(-c3cc(O)cc4ccccc34)cc2n1` [P-0324, 3-((1R,5S)-8-(7-(3-hydroxynaphthalen-1-yl)-2-(((S)-1-methylpyrrolidin-2-yl)methoxy)quinazolin-4-yl)-3,8-diazabicyclo[3.2.1]octan-3-yl)-3-oxopropanoic acid], the 50% inhibitory concentration (IC50) lay in the range of 100 to 1000 µM in assay [1] and 10 to 100 µM in assay [2].

For the compound `CN1CCC[C@H]1COc1nc(N2[C@@H]3CC[C@H]2CN(C(=O)CC#N)C3)c2ccc(-c3cc(O)cc4ccccc34)cc2n1` [P-0325, 3-((1R,5S)-8-(7-(3-hydroxynaphthalen-1-yl)-2-(((S)-1-methylpyrrolidin-2-yl)methoxy)quinazolin-4-yl)-3,8-diazabicyclo[3.2.1]octan-3-yl)-3-oxopropanenitrile], the IC50 in assay [1] fell in the range of 10 to 100 µM; in assay [2], 0.0001 to 10 µM.

As to `CN(C)c1ccc(CCc2nc(N3C[C@H]4CC[C@@H](C3)N4)c3cc(Cl)c(-c4c(O)cccc4F)c(F)c3n2)cc1` [P-0326, 2-(4-((1R,5S)-3,8-diazabicyclo[3.2.1]octan-3-yl)-6-chloro-2-(4-(dimethylamino)phenethyl)-8-fluoroquinazolin-7-yl)-3-fluorophenol], the IC50 in assay [1] and in assay [2] was 0.0001 to 10 µM in each case.

`CN1CCC[C@H]1COc1nc(N2CC3CCC2CN3)c2ccc(-c3cc(O)cc4ccccc34)c(F)c2n1` (stereo partly drawn) [P-0327, 4-(4-(2,5-diazabicyclo[2.2.2]octan-2-yl)-8-fluoro-2-(((S)-1-methylpyrrolidin-2-yl)methoxy)quinazolin-7-yl)naphthalen-2-ol]: the IC50 fell in the range of 0.0001 to 10 µM in assay [1] and 10 to 100 µM in assay [2].

For `CN1CCC(Oc2nc(N3C[C@H]4CC[C@@H](C3)N4)c3cc(Cl)c(-c4c(O)cccc4F)c(F)c3n2)CC1` [P-0329, 2-(4-((1R,5S)-3,8-diazabicyclo[3.2.1]octan-3-yl)-6-chloro-8-fluoro-2-((1-methylpiperidin-4-yl)oxy)quinazolin-7-yl)-3-fluorophenol], the IC50 lay within 0.0001 to 10 µM in assay [1] and 10 to 100 µM in assay [2].

For the compound `COc1cccc(F)c1-c1c(Cl)cc2c(N3C[C@H]4CC[C@@H](C3)N4)nc(OC3CCN(C)CC3)nc2c1F` [P-0330, 4-((1R,5S)-3,8-diazabicyclo[3.2.1]octan-3-yl)-6-chloro-8-fluoro-7-(2-fluoro-6-methoxyphenyl)-2-((1-methylpiperidin-4-yl)oxy)quinazoline], the values for the IC50 in assay [1] and in assay [2] were 0.0001 to 10 µM and 10 to 100 µM, respectively.

On to `CN1CCc2cccc(Oc3nc(N4C[C@H]5CC[C@@H](C4)N5)c4cc(Cl)c(-c5c(O)cccc5F)c(F)c4n3)c2C1` [P-0331, 2-(4-((1R,5S)-3,8-diazabicyclo[3.2.1]octan-3-yl)-6-chloro-8-fluoro-2-((2-methyl-1,2,3,4-tetrahydroisoquinolin-8-yl)oxy)quinazolin-7-yl)-3-fluorophenol], for which the IC50 is 0.0001 to 10 µM in assay [1] and 10 to 100 µM in assay [2].

`CN1CCc2cccc(Oc3nc(N4C[C@H]5CC[C@@H](C4)N5)c4ccc(-c5c(O)cccc5F)c(F)c4n3)c2C1` [P-0332, 2-(4-((1R,5S)-3,8-diazabicyclo[3.2.1]octan-3-yl)-8-fluoro-2-((2-methyl-1,2,3,4-tetrahydroisoquinolin-8-yl)oxy)quinazolin-7-yl)-3-fluorophenol]: the IC50 in assay [1] and in assay [2] was 10 to 100 µM throughout.

Take `CN1CCc2c(cccc2Oc2nc(N3C[C@H]4CC[C@@H](C3)N4)c3cc(Cl)c(-c4c(O)cccc4F)c(F)c3n2)C1` [P-0333, 2-(4-((1R,5S)-3,8-diazabicyclo[3.2.1]octan-3-yl)-6-chloro-8-fluoro-2-((2-methyl-1,2,3,4-tetrahydroisoquinolin-5-yl)oxy)quinazolin-7-yl)-3-fluorophenol]: the IC50 in assay [1] was in the range of 0.0001 to 10 µM; in assay [2], 10 to 100 µM.

In the case of `CN1CCc2c(cccc2Oc2nc(N3C[C@H]4CC[C@@H](C3)N4)c3ccc(-c4c(O)cccc4F)c(F)c3n2)C1` [P-0334, 2-(4-((1R,5S)-3,8-diazabicyclo[3.2.1]octan-3-yl)-8-fluoro-2-((2-methyl-1,2,3,4-tetrahydroisoquinolin-5-yl)oxy)quinazolin-7-yl)-3-fluorophenol], the IC50 in assay [1] and in assay [2] was 10 to 100 µM in each case.

Turning to `COc1cccc(F)c1-c1c(Cl)cc2c(N3C[C@H]4CC[C@@H](C3)N4)nc(Oc3cccc4c3CN(C)CC4)nc2c1F` [P-0335, 4-((1R,5S)-3,8-diazabicyclo[3.2.1]octan-3-yl)-6-chloro-8-fluoro-7-(2-fluoro-6-methoxyphenyl)-2-((2-methyl-1,2,3,4-tetrahydroisoquinolin-8-yl)oxy)quinazoline], the IC50 in assay [1] and in assay [2] was 10 to 100 µM each time.

`CN1CCC[C@H]1COc1nc(N2[C@@H]3CC[C@H]2CNC3)c2ccc(-c3cc(O)cc4ccccc34)cc2n1` [P-0336, 4-(4-((1R,5S)-3,8-diazabicyclo[3.2.1]octan-8-yl)-2-(((S)-1-methylpyrrolidin-2-yl)methoxy)quinazolin-7-yl)naphthalen-2-ol]: the IC50 was 0.0001 to 10 µM in assay [1] and 10 to 100 µM in assay [2].

In the case of `CN1CCC[C@H]1COc1nc(N2C[C@H]3CC[C@@H](C2)N3)c2ccc(-c3cccc4ccccc34)cc2n1` [P-0337, 4-((1R,5S)-3,8-diazabicyclo[3.2.1]octan-3-yl)-2-(((S)-1-methylpyrrolidin-2-yl)methoxy)-7-(naphthalen-1-yl)quinazoline], the IC50 in assay [1] is 0.0001 to 10 µM; in assay [2], 100 to 1000 µM.

As for `CN1CCC[C@H]1COc1nc(N2C[C@H]3CC[C@@H](C2)N3)c2ccc(-c3c(O)ccc4ccccc34)cc2n1` [P-0338, 1-(4-((1R,5S)-3,8-diazabicyclo[3.2.1]octan-3-yl)-2-(((S)-1-methylpyrrolidin-2-yl)methoxy)quinazolin-7-yl)naphthalen-2-ol], the values for the IC50 in assay [1] and in assay [2] were 0.0001 to 10 µM and 10 to 100 µM, respectively.
